# Experimental data taken from patent US5510459A, “Glucagon antagonists” (ZymoGenetics, Inc., priority 1992, dated 1996).
# Ends that are not written are not given here.
# Legend:
# [1] = molecular target: T1, glucagon receptor (rat liver membrane adenylate cyclase) (Rattus norvegicus, UniProt P30082); test: Adenylate cyclase activity assay with synthetic peptide glucagon analogs (Example 6); assay type: biochemical; details: synthetic peptides; in the presence of 20 nm glucagon
# T1 construct: A. Preparation of Rat Liver Membranes; from tissue; host or cells: rat liver (Sprague-Dawley) plasma membranes
# T1 sequence (P30082 27-485): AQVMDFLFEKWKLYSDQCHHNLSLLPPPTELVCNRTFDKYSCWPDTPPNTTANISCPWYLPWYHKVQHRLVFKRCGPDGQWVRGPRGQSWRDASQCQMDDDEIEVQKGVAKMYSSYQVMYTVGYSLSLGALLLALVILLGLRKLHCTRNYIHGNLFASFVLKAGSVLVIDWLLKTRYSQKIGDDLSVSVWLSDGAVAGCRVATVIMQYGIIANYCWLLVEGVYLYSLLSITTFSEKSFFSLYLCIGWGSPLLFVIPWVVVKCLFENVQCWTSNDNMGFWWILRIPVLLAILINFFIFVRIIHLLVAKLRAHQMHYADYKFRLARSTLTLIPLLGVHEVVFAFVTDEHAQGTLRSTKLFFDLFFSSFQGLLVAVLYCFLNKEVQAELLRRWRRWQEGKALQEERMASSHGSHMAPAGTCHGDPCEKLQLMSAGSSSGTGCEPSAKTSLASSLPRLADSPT
# Experimental: The adenylate cyclase assay was carried out byfirst adding 5 μl of sample (e.g. yeast broth) containingpotential inhibitors at micromolar concentrations to eachwell of a 96-well microtiter plate. […] Fifty microliters of the A+Bsolution was added to each "no glucagon" control well.Glucagon was added from the "G" solution to the remainingA+B solution to a concentration of 1×10^-8 M (thisresults in a final assay concentration of 5×10^-9).Fifty microliters of the A+B+glucagon solution was addedto each well, excluding the "no glucagon" controls. Themembrane preparation was diluted to approximately 2 mg/mlprotein with water. The reaction was started by theaddition of 45 μl of diluted membrane to each well, inorder. The assays were incubated for 12 minutes at roomtemperature, and were stopped by the addition of 100 μl ofStop Mix to each well in the same order that the dilutedmembrane was added. The assay mixtures were clarified bycentrifugation, and the assays were stored at 4° C.
# Cyclic AMP concentrations were determined usingan Amersham Scintillation Proximity Assay Kit (Amersham,Arlington Heights, Ill.). Briefly, 10 μl from eachadenylate cyclase reaction was added to individual betaplate wells. Each sample was diluted with 65 μl of 50 mM Na Acetate. Cyclic AMP standards were prepared at 0.0,1.6 and 6.4×10^-9 M or may be prepared from the"non-standards" supplied with Amersham kit.Triplicate standards of 75 μl of each standard were addedto individual beta plate wells. Nonspecific binding (NSB)controls were prepared by adding 150 μl of 50 mM NaAcetate to triplicate beta plate wells. […] Seventy-fivemicroliters of diluted anti-rabbit SPA reagent was thenadded to each well, and the plates were sealed andincubated, with shaking, overnight at room temperature.The plates were counted for one minute per sample in abeta-plate counter. […] The percent response for thestandards and samples was determined using the formula: […]
# [2] = molecular target: T2, glucagon receptor (liver plasma membranes) (Rattus norvegicus, UniProt P30082); test: Glucagon binding assay (125I-glucagon, liver plasma membranes); details: 30 minute incubation at 30° C., peptide 1.5-800 ng/ml
# T2 construct: 25 μl of freshly thawed plasmamembrane containing 10-20 μg of plasma membrane protein; from tissue
# T2 sequence (P30082 27-485): as above
# Experimental: The ability of the synthetic peptides to inhibitglucagon binding was determined by measuring the bindingof radiolabeled glucagon in the presence of syntheticpeptide relative to the binding of radiolabeled glucagonin the absence of the synthetic peptides. The syntheticpeptides were dissolved in 10% acetic acid and lyophilizedbefore use. Glucagon was dissolved in 10% acetic acid andlyophilized in 25-μg portions for use as standards. ^125 I-glucagonwith a specific activity of 11.1 kBq/ng wasobtained from Novo Biolabs (Novo Alle, Bagsvaerd, Denmark)and stored at -18° C. Plasma membranes were prepared aspreviously described, except protein detemination wascarried out using a Bio-Rad Protein Assay (BioRad,Richmond, Calif.) according to the manufacturer's directionsusing bovine serum albumin as a standard. Milli-Q gradewater was used throughout .
# The lyophilized glucagon and synthetic peptideswere dissolved in 100 μl of 0.05M HCl, left for 3 minutes. The glucagon was diluted with buffer (2.5% humanserum albumin Grade 5, Sigma Chemical Co., St. Louis, Mo.! in 0.1M HEPES, 0.15M NaCl, pH 7.4) to 0.2-200ng/ml.The synthetic peptides were diluted with the same bufferto 1.5-800 ng/ml. […] The filters were counted in a gamma counter.The binding of des-His^1 -(Ala^2,11 -Glu^21)glucagonamide wasshown to be 84%±9.3.
# [3] = molecular target: T1, glucagon receptor (rat liver membrane adenylate cyclase); test: Glucagon antagonist screening assay: adenylate cyclase reaction and cAMP assay with yeast culture broths; assay type: biochemical; details: no exogenous glucagon
# Text: Young female Sprague-Dawley rats were used forthe preparation of liver membranes using the methodessentially described by Neville (ibid.) and modified byPohl et al. (ibid). Ten to 15 rats yielding 60-100 grams of liver were processed per batch. After the rats wereeuthanized by cervical dislocation, their livers weresurgically removed and transferred, as quickly aspossible, to an iced beaker. Scissors were used to mincethe tissue into pieces approximately 3-6 mm in size. Anyconnective tissue that was present was removed.
# The minced tissue was suspended in ice cold 1 mMsodium bicarbonate at a concentration of approximately300 g/l. This suspension was processed in batches in atissue homogenizer with eight strokes of the loose pestle.The homogenate was mixed with additional ice cold 1 mMsodium bicarbonate to yield a final concentration of about40-80 g/l. […]
# After centrifugation, as much of the supernatantas possible was carefully decanted and discarded, and thepellets were gently resuspended in the remainingsupernatant with three strokes of the loose pestle in aclean tissue homogenizer. […] After thorough mixing, thesucrose concentration was measured with a refractometerand adjusted to between 43.9% and 44.1% sucrose(corresponding to a refractive index between 1.4076 and1.4080) with either 69% sucrose or water. […]
compound,measurement,setting,value
"CSCC[C@H](NC(=O)[C@H](CC(C)C)NC(=O)[C@H](Cc1c[nH]c2ccccc12)NC(=O)[C@H](CCC(N)=O)NC(=O)[C@@H](NC(=O)[C@H](Cc1ccccc1)NC(=O)[C@H](CC(=O)O)NC(=O)[C@H](CCC(N)=O)NC(=O)[C@H](C)NC(=O)[C@H](CCCNC(=N)N)NC(=O)[C@H](CCCNC(=N)N)NC(=O)[C@H](CO)NC(=O)[C@H](CC(=O)O)NC(=O)[C@H](CC(C)C)NC(=O)[C@H](Cc1ccc(O)cc1)NC(=O)[C@H](CCCCN)NC(=O)[C@H](CO)NC(=O)[C@H](Cc1ccc(O)cc1)NC(=O)[C@H](CC(=O)O)NC(=O)[C@H](CO)NC(=O)[C@@H](NC(=O)[C@H](Cc1ccccc1)NC(=O)[C@@H](NC(=O)CNC(=O)[C@H](CCC(N)=O)NC(=O)[C@@H](N)CO)[C@@H](C)O)[C@@H](C)O)C(C)C)C(=O)N[C@@H](CC(N)=O)C(=O)N[C@@H](CO)C(=O)O [F73, des-His^1 - Ser^29 !glucagon]",inhibition coefficient (I/A50): ratio of inhibitor to agonist concentration wherein the response is reduced to one-half,[1],30
"AQGTFTSDYAKYLDSRRAQEFVQWLMNT-NH2 [des-His^1 -(Ala^2,11 -Glu^21)glucagon amide]",binding (inhibition of radiolabeled glucagon binding),[2],84%±9.3
"DAQGTFISDYSKYLDSRRAQDFVQWLMNT [BB65, Asp^1 -Ala^2 -Ile^7 !glucagon]",inhibition coefficient (I/A50): ratio of inhibitor to agonist concentration wherein the response is reduced to one-half,[1],25
"SQSTFTSDYSKYLDSRRAQDFVQWLMNT [G56, des-His^1 - Ser^4 !glucagon]",inhibition coefficient (I/A50): ratio of inhibitor to agonist concentration wherein the response is reduced to one-half,[1],25
glucagon [ZB210],stimulation of adenylate cyclase activity by culture broth in the absence of exogenous glucagon,[3],stimulation of adenylate cyclase
